# Test results taken from patent US20250135006A1, “AMPHIPHILIC TLR7/8 ADJUVANTS AND USES THEREOF” (Pfizer Inc., priority 2023, published 2025).
# Where two headings read alike, the source gives them in different places.
# What was measured:
# [1] = Lymph node localization of AMP adjuvants in female BALB/c mice (LC-MS); type: in vivo; conditions: mouse, 2 nmol intramuscular; for concentration at 4 h: 4 h post injection; for concentration at 48 h: 48 h post injection
# Protocol: Test compounds were prepared at a concentration of 40 uM in phosphate-buffered saline (pH 7.4)+0.1% polysorbate 80, and 50 uL (2 nmol) of each was administered by intramuscular injection into the right hind leg muscle (gastrocnemius) of female BALB/c mice. Lymph nodes (popliteal, inguinal) were collected from 5 mice per group at 4 h and 48 h post injection, snap frozen in liquid nitrogen, and stored at −80C until analysis. Blood was also collected via cardiac puncture at 4 h and 48 h post injection and centrifuged in EDTA-coated tubes to yield plasma which was stored at −80C until analysis. AMP adjuvant concentrations in each sample were quantified by liquid chromatography-mass spectrometry (LC-MS).
# A standard curve containing the test compound was prepared in control mouse plasma before extraction with protein precipitation. Muscle samples were weighed and diluted in 4× 60:40 Isopropanol (IPA):Water. Lymph node samples were assumed to be 1 mg and were diluted 50× in […] 60:40 IPA:Water. Zirconium beads were added to tissue samples, followed by shaking in a bead beater to yield tissue homogenate. For plasma analysis, 20 ml of test sample or standard was added followed by 120 ml of acetonitrile containing internal standard (Simvastatin at 300 ng/ml). Tissue homogenate was prepared for analysis using a mixed matrix approach where test tissue samples (20 ml) were matrix matched with control plasma, and a plasma standard curve was matrixed matched with control mouse tissue. Internal standard was added as described above. Samples were vortexed for 1 min, then centrifuged at 3000 rpm for 5 min. 50 ml of supernatant was removed and transferred to a clean 96 well block, 150 ml of 0.1% formic acid in water was added, block was vortexed, centrifuged and 15 ml was injected on the LC/MS for analysis.
# An initial mobile phase composition of 5% B was ramped to 95% in 2.0 minutes, held at 95% for 0.3 minutes, and then returned to initial 5% B for 0.3 minutes re-equilibration. The total analysis time for each sample was 3 minutes.
# Data was collected on an AB Sciex API6500 (QTRAP) mass spectrometer using positive Turbo IonSpray™ electrospray ionization (ESI) and multiple reaction monitoring (MRM) mode. Typical source conditions, heated capillary temperature, gas1, gas2, and curtain gas were set at 600C, 50, 50, and 10 respectively. Transitions for Compound 1, Compound 2, and internal standard Simvastatin were m/z 1129® 923 for Compound 1, m/z 1172® 956 for Compound 2 and m/z 419® 285 for internal standard Simvastatin respectively. Data acquisition and processing was carried out with Analyst software version 1.7.
# S. pneumoniae serotype 3 = type: in vivo, female Swiss-Webster mice; conditions: mouse
# [2] = inguinal lymph node, read-out: concentration in the inguinal lymph node
# [3] = plasma, read-out: concentration in plasma
# [4] = popliteal lymph node, read-out: concentration in the popliteal lymph node
structure (smiles),measurement,setting,value
"CCCCc1nc2c(N)nc3cc(CCCN4CCN(C(=O)CCOCCOCCOCCOCCOCCOCCOCCOCCOCCOCCOCCOCCOCCOCCOCCOCCOCCOCCOCCOCCOCCOCCOCCOCCNC(=O)CCOCCOCCOCCOCCNC(=O)CCCOc5c(C)c(C)c6c(c5C)CC[C@@](C)(CCC[C@H](C)CCC[C@H](C)CCCC(C)C)O6)CC4)ccc3c2n1CC(C)(CO)CO [Compound 2, N-{75-[4-(3-{4-amino-2-butyl-1-[3-hydroxy-2-(hydroxymethyl)-2-methylpropyl]-1H-imidazo[4,5-c]quinolin-7-yl}propyl)piperazin-1-yl]-75-oxo-3,6,9,12,15,18,21,24,27,30,33,36,39,42,45,48,51,54,57,60,63,66,69,72-tetracosaoxapentaheptacont-1-yl}-17-oxo-20-({(2R)-2,5,7,8-tetramethyl-2-[(4R,8R)-4,8,12-trimethyltridecyl]-3,4-dihydro-2H-chromen-6-yl}oxy)-4,7,10,13-tetraoxa-16-azaicosan-1-amide]",concentration at 4 h,[1]; [2],16600 ± 6920 ng/g
same,concentration at 48 h,[1]; [2],17000 ± 3320 ng/g
same,concentration at 4 h,[1]; [3],1100 ± 305 ng/mL
same,concentration at 48 h,[1]; [3],< 25 ng/mL
same,concentration at 4 h,[1]; [4],35300 ± 16800 ng/g
same,concentration at 48 h,[1]; [4],23200 ± 7820 ng/g
same,OPA geometric mean titers (GMT),"S. pneumoniae serotype 3; 0.1 μg S. pneumoniae serotype 3-CRM197 antigen with adjuvant (2 nmol; AlPO4 100 μg), IM weeks 0 and 3, sera week 5",610
same,OPA geometric mean titers compared with reference adjuvants,"S. pneumoniae serotype 3; S. pneumoniae serotype 3 antigen, versus aluminum phosphate and free TLR 7/8 agonist","higher average OPA geometric mean titers than aluminum phosphate, as well as the free TLR 7/8 agonist molecule"
